Source: patent publication US7148245B2, “Biphenyl derivatives substituted with an aromatic or heteroaromatic radical, and pharmaceutical and cosmetic compositions containing them” (Galderma Research & Development, priority 1997, dated 2006)

SMILES | melting point [°C]
CC1(C)CCC(C)(C)c2cc(-c3ccc(-c4ccccc4)c(-c4ccc(C(=O)O)cc4)c3)ccc21 [Example 28, 4′-(5,5,8,8-Tetramethyl-5,6,7,8-tetrahydro-2-naphthyl)-[1,1′;2′,1″]terphenyl-4″-carboxylic acid] | 258 to 262
CC1(C)CCC(C)(C)c2cc(-c3cc(-c4ccc(C(=O)O)cc4)ccc3OCCCCCCCCCO)ccc21 [Example 6, 4-[4-(9-Hydroxynonyloxy)-3-(5,6,7,8-tetrahydro-5,5,8,8-tetramethyl-2-naphthyl)phenyl]benzoic acid] | 147 to 150
CC1(C)CCC(C)(C)c2cc(C3C=C(c4ccccc4)C=CC3(OCC(=O)O)C(=O)O)ccc21 (stereo not shown) [Example 54, 4′-Carboxymethoxy-3′-(5,5,8,8-tetramethyl-5,6,7,8-tetrahydro-2-naphthyl)biphenyl-4′-carboxylic acid] | 279 to 281
CC1(C)CCC(C)(C)c2cc(-c3cc(-c4ccc(C(=O)O)cc4O)ccc3-c3ccccc3)ccc21 [Example 42, 2″-Hydroxy-2′-(5,5,8,8-tetramethyl-5,6,7,8-tetrahydro-2-naphthyl)-[1,1′;4′,1″]terphenyl-4″-carboxylic acid] | 282 to 284
COc1cccc(-c2ccc(-c3ccc(C(=O)O)cc3)cc2-c2ccc3c(c2)C(C)(C)CCC3(C)C)c1 [Example 20, 3-Methoxy-2′-(5,5,8,8-tetramethyl-5,6,7,8-tetrahydro-2-naphthyl)-[1,1′;4′,1″]terphenyl-4″-carboxylic acid] | 258 to 259
CC1(C)CCC(C)(C)c2cc(-c3cc(-c4ccc(C(=O)O)c(O)c4)ccc3-c3ccccc3)ccc21 [Example 46, 3″-Hydroxy-2′-(5,5,8,8-tetramethyl-5,6,7,8-tetrahydro-2-naphthyl)-[1,1′;4′,1″]terphenyl-4″-carboxylic acid] | 266 to 268
CC1(C)CCC(C)(C)c2cc(-c3cc(-c4ccc(C(=O)O)nc4)ccc3-c3ccccc3)ccc21 [Example 48, 5-[2-(5,5,8,8-Tetramethyl-5,6,7,8-tetrahydro-2-naphthyl)biphenyl-4-yl]-2-pyridinecarboxylic acid] | 222 to 224
COCOc1ccccc1-c1ccc(-c2ccc(C(=O)O)cc2)cc1-c1ccc2c(c1)C(C)(C)CCC2(C)C [Example 21, 2-Methoxymethoxy-2′-(5,5,8,8-tetramethyl-5,6,7,8-tetrahydro-2-naphthyl)-[1,1′;4′,1″]terphenyl-4″-carboxylic acid] | 218 to 221
CC1(C)CCC(C)(C)c2cc(-c3cc(-c4ccc(C(=O)O)cc4)ccc3OCCCCCC(=O)O)ccc21 [Example 56, 4′-(5-Carboxypentyloxy)-3′-(5,5,8,8-tetramethyl-5,6,7,8-tetrahydro-2-naphthyl)biphenyl-4-carboxylic acid] | 245
CC1(C)CCC(C)(C)c2cc(-c3cc(-c4ccc(C(=O)O)cc4)ccc3-c3ccccc3O)ccc21 [Example 22, 2-hydroxy-2′-(5,5,8,8-tetramethyl-5,6,7,8-tetrahydro-2-naphthyl)-[1,1′;4′,1″]terphenyl-4″-carboxylic acid] | 265 to 269
CC1(C)CCC(C)(C)c2cc(-c3cc(-c4ccc(C(=O)O)cc4)ccc3OCCCCCCCCO)ccc21 [Example 5, 4-[4-(8-Hydroxyoctyloxy)-3-(5,6,7,8-tetrahydro-5,5,8,8-tetramethyl-2-naphthyl)phenyl]benzoic acid] | 155 to 160
COCOCc1cc(-c2ccc(C(=O)O)cc2)cc(-c2ccc3c(c2)C(C)(C)CCC3(C)C)c1 | 165
CC1(C)CCC(C)(C)c2cc(-c3cc(CO)cc(-c4ccc(C(=O)O)cc4)c3)ccc21 | 213
CC1(C)CCC(C)(C)c2cc(-c3cc(-c4ccc(C(=O)O)cc4)ccc3OCCCCCCO)ccc21 [Example 3, 4-[4-(6-Hydroxyhexyloxy)-3-(5,6,7,8-tetrahydro-5,5,8,8-tetramethyl-2-naphthyl)phenyl]benzoic acid] | 200 to 201
COc1c(-c2ccc(C(=O)O)cc2)cccc1-c1ccc2c(c1)C(C)(C)CCC2(C)C | 205
CC1(C)CCC(C)(C)c2cc(-c3cc(-c4ccc(C(=O)O)cc4)ccc3OCCN3CCOCC3)ccc21 [Example 12, 4′-(2-Morpholin-4-ylethoxy)-3′-(5,5,8,8-tetramethyl-5,6,7,8-tetrahydro-2-naphthyl)biphenyl-4-carboxylic acid] | 270 to 272

SMILES | melting point [°C]
CC1(C)CCC(C)(C)c2cc(-c3cc(-c4ccc(C(=O)O)cc4)ccc3-c3ccccc3)c(O)cc21 | 273
Cc1cc2c(cc1-c1cc(-c3ccc(C(=O)O)cc3)ccc1-c1ccccc1)C(C)(C)CCC2(C)C [Example 36, 2′-(3,5,5,8,8-Pentamethyl-5,6,7,8-tetrahydro-2-naphthyl)-[1,1′;4′,1″]terphenyl-4″-carboxylic acid] | 217
CCCOc1cc2c(cc1-c1cc(-c3ccc(C(=O)O)cc3)ccc1-c1ccccc1)C(C)(C)CCC2(C)C [Example 40, 2′-(3-Propyloxy-5,5,8,8-tetramethyl-5,6,7,8-tetrahydro-2-naphthyl)-[1,1′;4′,1″]terphenyl-4″-carboxylic acid] | 234
CC1(C)CCC(C)(C)c2cc(-c3cc(-c4ccc(C(=O)O)cc4)ccc3OCC(O)CO)ccc21 (racemic) [Example 10, 4′-(2,3-Dihydroxypropoxy)-3′-(5,5,8,8-tetramethyl-5,6,7,8-tetrahydro-2-naphthyl)biphenyl-4-carboxylic acid] | 258
COCOc1cc(C(=O)O)ccc1-c1ccc(-c2ccccc2)c(-c2ccc3c(c2)C(C)(C)CCC3(C)C)c1 [Example 43, 2″-Methoxymethoxy-2′-(5,5,8,8-tetramethyl-5,6,7,8-tetrahydro-2-naphthyl)-[1,1′;4′,1″]terphenyl-4″-carboxylic acid] | 204 to 206
COCOc1c(-c2ccc(C(=O)O)cc2)cccc1-c1ccc2c(c1)C(C)(C)CCC2(C)C | 176
CC1(C)CCSc2cc(-c3cc(-c4ccc(C(=O)O)cc4)ccc3-c3ccccc3)ccc21 | 261
COCOc1cccc(-c2ccc(-c3ccc(C(=O)O)cc3)cc2-c2ccc3c(c2)C(C)(C)CCC3(C)C)c1 [Example 18, 3-Methoxymethoxy-2′-(5,5,8,8-tetramethyl-5,6,7,8-tetrahydro-2-naphthyl)-[1,1′;4′,1″]terphenyl-4″-carboxylic acid] | 212
CC1(C)CCC(C)(C)c2cc(-c3cc(-c4ccc(C(=O)O)cc4)ccc3OCc3ccccc3)ccc21 [Example 9, 4-[4-Benzyloxy-3-(5,6,7,8-tetrahydro-5,5,8,8-tetramethyl-2-naphthyl)phenyl]benzoic acid] | 241 to 244
CC1(C)CCC(C)(C)c2cc(-c3cc(-c4ccc(C(=O)O)cc4)ccc3OCCCCCCCO)ccc21 [Example 4, 4-[4-(7-Hydroxyheptyloxy)-3-(5,6,7,8-tetrahydro-5,5,8,8-tetramethyl-2-naphthyl)phenyl]benzoic acid] | 168 to 172
CC1(C)CCC(C)(C)c2cc(-c3cc(-c4ccc(C(=O)O)cc4)ccc3-c3ccccc3)ccc21 [Example 14, 2′-(5,5,8,8-Tetramethyl-5,6,7,8-tetrahydro-2-naphthyl)-[1,1′;4′,1″]terphenyl-4″-carboxylic acid] | 287 to 288
CCOC(=O)CCCCCOc1ccc(-c2ccc(C(=O)O)cc2)cc1-c1ccc2c(c1)C(C)(C)CCC2(C)C [Example 55, 4′-(5-Ethoxycarbonylpentyloxy)-3′-(5,5,8,8-tetramethyl-5,6,7,8-tetrahydro-2-naphthyl)biphenyl-4-carboxylic acid] | 177
COCOc1ccc(-c2ccc3c(c2)C(C)(C)CCC3(C)C)cc1-c1ccc(C(=O)O)cc1 | 183 to 185
COc1ccccc1-c1ccc(-c2ccc(C(=O)O)cc2)cc1-c1ccc2c(c1)C(C)(C)CCC2(C)C [Example 23, 2-Methoxy-2′-(5,5,8,8-tetramethyl-5,6,7,8-tetrahydro-2-naphthyl)-[1,1′;4′,1″]terphenyl-4″-carboxylic acid] | 239 to 243
CC1(C)CCC(C)(C)c2cc(-c3cc(-c4ccc(C(=O)O)cc4)ccc3C(=O)O)ccc21 | 343
